The values that follow come from patent US9751837B2, “Kinase inhibitors” (RESPIVERT LIMITED, priority 2014, dated 2017).

One data set has as its target hERG (Homo sapiens (Human), UniProt Q12809). The experiment in a line: hERG inhibition, IonWorks patch clamp electrophysiology. It counts as cell-based. The conditions noted are these: human, hERG, read-out: % Inhibition at Top Concentration. The method, then:
(§1) Compounds of the invention were tested for inhibition of the human ether a go-go (hERG) channel using IonWorks™ patch clamp electrophysiology at Essen Bioscience (Welwyn Garden City, England).
In general terms: Block of hERG is tested as a sign of cardiac risk.

The target of data set [1] is human ether a go-go (hERG) channel (Homo sapiens (Human), UniProt Q12809). The data set is described as above. It counts as cell-based. The conditions noted are these: IonWorks patch clamp. The method, then:
as §1
For orientation: Patch clamp records ionic current or voltage across a cell membrane.

Data set [2] can be described thus: Solubility in fasted-state simulated colonic fluid (FaSSCoF) at pH 6.5. It counts as physicochemical. The conditions noted are these: 25 °C, pH 6.5, fassgf or other biorelevant, thermodynamic from solid. In a few lines: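 Compounds were suspended at up to 2-10 mg/mL in pH 6.5 Tris/maleate FaSSCoF containing a five-bile-acid mixture, phosphatidylcholine, palmitic acid and BSA. After 24 h equilibration at 25° C the suspension was filtered and the filtrate quantified by HPLC peak area against a standard.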

The target in another data set is GSK 3α (Homo sapiens (Human), UniProt P49840). The data set is described as follows: GSK 3α enzyme inhibition (Method 2), Z-LYTE FRET. The class given is biochemical. The conditions noted are these: read-out: IC50 Values for Enzyme Inhibition GSK3α. In a few lines:
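GSK3-α (500 ng/mL stock) was preincubated with compound at RT for 2 hr (Method 1; 4-0.004 μg/mL stocks) or 105 min (Method 2; 10-0.01 μg/mL stocks). The Z-LYTE FRET peptide (8 μM stock) and ATP (40 μM stock) were then reacted for 1 hr, followed by 1 hr protease development. Phosphorylation was read as the coumarin/fluorescein emission ratio.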

Data set [3] is described as follows: Pharmacokinetics and total colon distribution after single oral administration. The conditions noted are these: male, C57BL/6, mouse, mice, Ex. 16 measured after oral 5 mg/kg of Ex. 19 (Na salt). It counts as in vivo, male C57BL/6 mice. The procedure:
Studies were conducted by Sai Life Sciences (Hinjewadi, Pune, India) to investigate the systemic pharmacokinetics and total colon tissue distribution of compounds of the invention. In particular, pharmacokinetic studies were carried out in male C57BL/6 mice following a single oral administration of the compound.

The test system of a further data set is Jurkat cells. The data set is described as follows: Cell cytotoxicity assay (r). It counts as cell-based, human. The conditions noted are these: 24 hours. The procedure, abridged: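 Jurkat cells (1×10^5/well, RPMI + 10% FBS) exposed to compound at 20, 5 or 1 μg/mL final (1.0% DMSO control) for 24 h at 37° C., 5% CO2. Then stained with 7.5 μg/mL propidium iodide for 15 min. % viability = PI-negative cells by flow cytometry, normalized to DMSO.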

Where [4] appears, read: pH 6.5 FaSSCoF Solubility (mg/mL) Run 1.
The mark [5] stands for this setting: pH 6.5 FaSSCoF Solubility (mg/mL) Run 2.
The mark [6] stands for this setting: blood, read-out: Mean blood concentration.
[7] abbreviates: total colon, read-out: total colon level.

≈ marks a conversion by molar mass, not a printed value. Like-named read-outs stand apart in the source and are kept apart here.

Sequence of GSK 3α (P49840 whole entry): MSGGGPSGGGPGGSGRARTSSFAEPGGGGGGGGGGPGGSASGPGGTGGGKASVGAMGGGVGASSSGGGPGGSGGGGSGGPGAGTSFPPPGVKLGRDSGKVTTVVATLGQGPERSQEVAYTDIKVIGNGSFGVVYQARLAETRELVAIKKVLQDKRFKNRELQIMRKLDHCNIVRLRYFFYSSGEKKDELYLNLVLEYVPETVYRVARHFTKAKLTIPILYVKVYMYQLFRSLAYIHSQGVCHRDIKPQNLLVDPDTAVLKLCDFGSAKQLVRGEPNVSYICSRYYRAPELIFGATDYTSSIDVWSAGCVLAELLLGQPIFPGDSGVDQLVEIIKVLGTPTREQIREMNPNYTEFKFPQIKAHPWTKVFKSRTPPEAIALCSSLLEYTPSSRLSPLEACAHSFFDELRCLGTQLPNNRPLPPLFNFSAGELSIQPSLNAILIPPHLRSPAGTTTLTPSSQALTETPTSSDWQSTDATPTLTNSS
Sequence of hERG (Q12809 whole entry): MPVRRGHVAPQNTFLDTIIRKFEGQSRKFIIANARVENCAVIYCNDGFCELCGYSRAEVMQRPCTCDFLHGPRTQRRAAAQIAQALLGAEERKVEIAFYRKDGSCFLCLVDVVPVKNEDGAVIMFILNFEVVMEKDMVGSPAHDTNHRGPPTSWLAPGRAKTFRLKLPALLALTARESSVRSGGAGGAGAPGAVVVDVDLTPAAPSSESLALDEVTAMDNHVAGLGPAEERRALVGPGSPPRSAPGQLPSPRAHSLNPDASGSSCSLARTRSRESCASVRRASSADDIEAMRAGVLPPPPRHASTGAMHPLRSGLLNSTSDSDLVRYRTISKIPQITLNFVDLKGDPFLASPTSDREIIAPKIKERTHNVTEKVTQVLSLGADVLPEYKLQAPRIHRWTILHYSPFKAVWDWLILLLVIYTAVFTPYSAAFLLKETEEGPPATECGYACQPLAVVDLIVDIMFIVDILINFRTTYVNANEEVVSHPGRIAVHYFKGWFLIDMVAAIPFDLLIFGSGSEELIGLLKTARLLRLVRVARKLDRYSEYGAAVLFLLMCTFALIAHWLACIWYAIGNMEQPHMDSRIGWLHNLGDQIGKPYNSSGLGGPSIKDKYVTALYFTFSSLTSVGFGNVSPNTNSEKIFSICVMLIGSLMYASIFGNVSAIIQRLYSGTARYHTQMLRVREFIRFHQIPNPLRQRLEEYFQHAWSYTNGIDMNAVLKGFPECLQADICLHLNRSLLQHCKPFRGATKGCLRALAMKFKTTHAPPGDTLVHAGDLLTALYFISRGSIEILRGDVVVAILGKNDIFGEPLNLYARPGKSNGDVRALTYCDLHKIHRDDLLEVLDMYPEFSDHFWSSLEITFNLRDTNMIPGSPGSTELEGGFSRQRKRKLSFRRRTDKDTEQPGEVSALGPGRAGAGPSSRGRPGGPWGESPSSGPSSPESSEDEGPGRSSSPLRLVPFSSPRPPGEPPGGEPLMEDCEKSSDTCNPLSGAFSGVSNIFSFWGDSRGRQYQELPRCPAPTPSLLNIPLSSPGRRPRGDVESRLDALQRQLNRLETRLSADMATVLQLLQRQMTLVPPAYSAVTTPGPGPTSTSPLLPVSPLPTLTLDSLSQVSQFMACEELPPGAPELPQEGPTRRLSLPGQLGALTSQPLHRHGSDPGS
Sequence of human ether a go-go (hERG) channel (Q12809 whole entry): as above

Usually IC50 stands for the midpoint of a concentration-inhibition curve. For orientation: solubility (thermodynamic) means solubility found after equilibrating the solid with the medium. With `COc1cc(Nc2cc(Oc3ccc(NC(=O)Nc4cc(C(C)(C)C)cc(NS(C)(=O)=O)c4OC)c4ccccc34)ccn2)cc(OC)c1C(=O)NCCN1CCN(C)CC1` [Example 22, 4-((4-((4-(3-(5-(tert-Butyl)-2-methoxy-3-(methylsulfonamido)phenyl)ureido)naphthalen-1-yl)oxy)pyridin-2-yl)amino)-2,6-dimethoxy-N-(2-(4-methylpiperazin-1-yl)ethyl)benzamide], the inhibition at 3.7 µM on hERG (3.7 μM) was 13%. The IC50 in data set [1] was above 3.7 µM. In addition, the thermodynamic solubility at 24 h was 17 µg/mL (≈ 19.9 µM) in data set [2] (setting [4]), 25 µg/mL (≈ 29.2 µM) in data set [2] (setting [5]), 13 µg/mL (≈ 15.2 µM) in data set [2] (pH 6.5 FaSSCoF Solubility (mg/mL) Run 3) and 9 µg/mL (≈ 10.5 µM) in data set [2] (pH 6.5 FaSSCoF Solubility (mg/mL) Run 4).
For the compound `COc1cc(Nc2cc(Oc3ccc(NC(=O)Nc4cc(C(C)(C)C)cc(NS(C)(=O)=O)c4OC)c4ccccc34)ccn2)ccc1C(=O)NCCOCCOCCO` [Example 16, 4-[[4-[[4-[[5-tert-Butyl-3-(methanesulfonamido)-2-methoxy-phenyl]carbamoylamino]-1-naphthyl]oxy]-2-pyridyl]amino]-N-[2-[2-(2-hydroxyethoxy)ethoxy]ethyl]-2-methoxy-benzamide], at GSK 3α, the IC50 is 3.73 µM. Further, in data set [3] (setting [6]), the concentration at 0.5 h was 1.3 ng/mL, the concentration at 1 h stood at 1.4 ng/mL, the concentration at 2 h was 0.6 ng/mL and the concentration at 4 h came to 0 ng/mL. In addition, in data set [3] (setting [6]), the concentration at 6 h was 0 ng/mL, the concentration at 8 h came out at 0.2 ng/mL, the concentration at 12 h was found to be 0 ng/mL and the concentration at 24 h stood at 0 ng/mL. Besides, in data set [3] (setting [7]), the concentration at 0.5 h turned out to be 9.5 ng/g, the concentration at 1 h amounted to 110 ng/g, the concentration at 2 h stood at 2400 ng/g and the concentration at 4 h was found to be 3350 ng/g. Moreover, in data set [3] (setting [7]), the concentration at 6 h turned out to be 3320 ng/g, the concentration at 8 h amounted to 3420 ng/g, the concentration at 12 h came to 5090 ng/g and the concentration at 24 h came to 0 ng/g. Besides, the solubility (thermodynamic) at 24 h in data set [2] (setting [4]) is 4 µg/mL (≈ 4.81 µM). In data set [2] (setting [5]), the solubility (thermodynamic) at 24 h was 4 µg/mL (≈ 4.81 µM).
In the case of `COc1cc(Nc2cc(Oc3ccc(NC(=O)Nc4cc(C(C)(C)C)cc(NS(C)(=O)=O)c4OC)c4ccccc34)ccn2)ccc1C(=O)NCC1CCN(C)CC1` [17(ak), 4-[[4-[[4-[[5-tert-butyl-3-(methanesulfonamido)-2-methoxy-phenyl]carbamoylamino]-1-naphthyl]oxy]-2-pyridyl]amino]-2-methoxy-N-[(1-methyl-4-piperidyl)methyl]benzamide], in the data set on Jurkat cells (1 μg/mL), the “% Viability at 1 μg/mL” value worked out at 99.0%. Further, in the data set with Jurkat cells, the “% Viability at 20 μg/mL” value is 0.4%. On GSK 3α, the IC50 was determined as 1.82 µM.
In the case of `COCCN(C)CCNC(=O)c1ccc(Nc2cc(Oc3ccc(NC(=O)Nc4cc(C(C)(C)C)cc(NS(C)(=O)=O)c4OC)c4ccccc34)ccn2)cc1OC` [17(ad), 4-[[4-[[4-[[5-tert-butyl-3-(methanesulfonamido)-2-methoxy-phenyl]carbamoylamino]-1-naphthyl]oxy]-2-pyridyl]amino]-2-methoxy-N-[2-[2-methoxyethyl(methyl)amino]ethyl]-benzamide], in the data set on Jurkat cells, the “% Viability at 5 μg/mL” value came out at 6.3% and the “% Viability at 20 μg/mL” value is 0.4%. Also, the IC50 at GSK 3α came to 3.06 µM.
Regarding `COc1cc(Nc2cc(Oc3ccc(NC(=O)Nc4cc(C(C)(C)C)cc(NC(=O)CO)c4OC)c4ccccc34)ccn2)ccc1C(=O)NCCN1CC[S+]([O-])CC1` [Example 41, 4-((4-((4-(3-(5-(tert-Butyl)-3-(2-hydroxyacetamido)-2-methoxyphenyl)ureido)naphthalen-1-yl)oxy)pyridin-2-yl)amino)-2-methoxy-N-(2-(1-oxidothiomorpholino)ethyl)benzamide], at hERG (11 μM), the inhibition at 11 µM came to 7%. This compound also came in with an IC50 in data set [1] above 11 µM. Also, the thermodynamic solubility at 24 h is 7 µg/mL (≈ 8.5 µM) in data set [2] (setting [4]) and 3 µg/mL (≈ 3.64 µM) in data set [2] (setting [5]).
For the compound `C#Cc1cc(Nc2cc(Oc3ccc(NC(=O)Nc4cc(C(C)(C)C)cc(NS(C)(=O)=O)c4OC)c4ccccc34)ccn2)ccc1C(=O)NCCN1CCOCC1` [Example 15, 4-[[4-[[4-[[5-tert-Butyl-3-(methanesulfonamido)-2-methoxy-phenyl]carbamoylamino]-1-naphthyl]oxy]-2-pyridyl]amino]-2-ethynyl-N-(2-morpholinoethyl)benzamide], in the data set on Jurkat cells, the “% Viability at 5 μg/mL” value was 75.0%. In addition, the IC50 on GSK 3α is 2.79 µM. Also, the solubility (thermodynamic) at 24 h in data set [2] (setting [4]) and in data set [2] (setting [5]) was 10 µg/mL (≈ 12.4 µM) each time.
As to `COc1cc(Nc2cc(Oc3ccc(NC(=O)Nc4cc(C(C)(C)C)cc(NS(C)(=O)=O)c4OC)c4ccccc34)ccn2)ccc1C(=O)NCCN1CCCCC1` [17(p), 4-[[4-[[4-[[5-tert-butyl-3-(methanesulfonamido)-2-methoxy-phenyl]carbamoylamino]-1-naphthyl]oxy]-2-pyridyl]amino]-2-methoxy-N-[2-(1-piperidyl)ethyl]benzamide], the “% Viability at 20 μg/mL” value in the data set with Jurkat cells stood at 1.5%. The IC50 at GSK 3α was found to be 4.68 µM.
Taken in the same sequence, the figures for `COc1cc(Nc2cc(Oc3ccc(NC(=O)Nc4cc(C(C)(C)C)cc(NS(C)(=O)=O)c4OC)c4ccccc34)ccn2)ccc1C(=O)NCCN1CCN(CCO)CC1` [17(z), 4-[[4-[[4-[[5-tert-butyl-3-(methanesulfonamido)-2-methoxy-phenyl]carbamoylamino]-1-naphthyl]oxy]-2-pyridyl]amino]-N-[2-[4-(2-hydroxyethyl)piperazin-1-yl]ethyl]-2-methoxy-benzamide] were 2.0% and 2.88 µM.
On to `COc1cc(Nc2cc(Oc3ccc(NC(=O)Nc4cc(C(C)(C)C)cc(NS(C)(=O)=O)c4OC)c4ccccc34)ccn2)ccc1C(=O)NCCC1CCN(C)CC1` [Example 14, 4-[[4-[[4-[[5-tert-Butyl-3-(methanesulfonamido)-2-methoxy-phenyl]carbamoylamino]-1-naphthyl]oxy]-2-pyridyl]amino]-2-methoxy-N-[2-(1-methyl-4-piperidyl)ethyl]benzamide], for which the “% Viability at 20 μg/mL” value with Jurkat cells is 0.7%. The IC50 at GSK 3α came out at 2.21 µM. In addition, the values for the solubility (thermodynamic) at 24 h in data set [2] (setting [4]) and in data set [2] (setting [5]) were 16 µg/mL (≈ 19.4 µM) and 13 µg/mL (≈ 15.8 µM), respectively.
